Data: patent US8546320B2, “Hsp9O-targeted anti-cancer chimeric peptide” (Kyoto University, priority 2008, dated 2013)
Where two headings read alike, the source gives them in different places. Where a SMILES comes first, the peptide text is derived from it.

What was measured:
[1] = tested on: HEK293; experiment: cells; format: cell-based, human
Description: (§1) A total of 3×10^3 cells were inoculated per well on a 96 well plate and cultured in a medium containing 10% FBS for 24 hours, and incubated with 100 μl of a peptide having a gradual increase in concentration at 37° C. for 48 to 72 hours. The survival rate of the cells was measured by using WST-8 solution (Cell Count Reagent SF; Nacalai Tesque, Inc.).
(§2) A total of 3×10^3 cells per well were inoculated onto a 96 well plate, and incubated in a medium containing 10% FBS with 100 μl of a peptide diluted stepwise at 37° C. for 48 to 72 hours. The survival rate of the cells was measured by using WST-8 solution (Cell Count Reagent SF; Nacalai Tesque, Inc.).

[2] = tested on: human normal pancreas epithelial cell strain (PE); experiment: Cell viability assay (WST-8), PE; format: cell-based; conditions: Normal cells PE, averages of two independent experiments, read-out: Anti-tumor activity, IC50
Description: as §2

[3] = tested on: human lung normal epithelial cell strain (WI38); experiment: Cell viability assay (WST-8), WI38; format: cell-based; conditions: Normal cells W138, averages of two independent experiments, read-out: Anti-tumor activity, IC50
Description: as §2

[4] = tested on: U937; experiment: cells; format: cell-based, human
Description: as §2

[5] = tested on: THP-1; experiment: cells; format: cell-based, human
Description: as §2

[6] = tested on: HL-60; experiment: cells; format: cell-based, human
Description: as §2

[7] = tested on: K562; experiment: cells; format: cell-based, human
Description: as §2

[8] = tested on: Human pancreatic cancer cells (Bxpc 3); experiment: Anti-tumor effect in cancer-bearing animal models, local administration; format: in vivo; conditions: site of administration and behavior observed
Description: Human pancreatic cancer cells (Bxpc 3) (5.0×10^6) were suspended in 150 μl of phosphate-buffered physiological saline (PBS) and transplanted subcutaneously into nude mice (BALB/c Slc-nu/nu). After 5 days, 150 μl of the Antp-TPR peptide suspended in PBS at a concentration of 1 mg/kg to 5 mg/kg was administered to the solid cancer every two days for a total of nine times, and the tumor contraction effect was examined. The tumor diameter was measured with calipers and the tumor volume (mm^3) was calculated according to the formula: length (mm)×minor diameter (mm)^2×0.5.

[9] = tested on: leukemia cell strains; format: cell-based, human
Description: as §2

[10] = tested on: BXPC-3; format: cell-based, human
[11] = tested on: Caki-1; format: cell-based, human
[12] = tested on: A549; format: cell-based; conditions: 24 h
[13] = tested on: MDA-MB-231; format: cell-based; conditions: 24 h
[14] = tested on: LNCap; format: cell-based, human
[15] = tested on: OE19; format: cell-based; conditions: 24 h
Description: as §1, §2

[16] = tested on: cancer cells; experiment: Cell viability assay, summary statements on cancer cells; format: cell-based; conditions: 24 h
[17] = tested on: BT-20; format: cell-based, human; conditions: 24 h
Description: as §1, §2

[18] = molecular target: T1, interaction between Hsp90 and the Hop's TPR2A domain (Homo sapiens, UniProt P07900); experiment: BIACORE competition: Hsp90 pre-mixed with peptide, added to immobilized TPR2A; format: binding; conditions: for Binding of Hsp90 (%): to immobilized TPR2A
T1 construct: histidine tag; made in house; host or cells: Hsp90: E. coli BL21 (pDEST17-Hsp90)
Excerpt: It was examined whether the TPR peptide designed could compete specifically with the interaction between Hsp90, which is essential for the accurate folding of some carcinogenic protein including survivin in cancer cells, and the Hop's TPR2A domain.

[19] = tested on: U937; experiment: Penetration experiment, confocal microscope, U937; format: cell-based, human; conditions: U937, TAMRA-labeled peptide 10 μM, 1 hour
Description: TPR-TAMRA (TAMRA labeled body) or Antp-TPR-TAMRA (TAMRA labeled body) was added to 1×10^6 peripheral blood mononuclear cells (PBMCs), which were prepared from U937 cells, a mouse leukemia cell strain EL4 or mouse peripheral blood, at a final concentration of 10 μM, and the mixture was cultured for 1 hour. The peptide incorporated in the cell or influx of the medium into the cell after peptide penetration was observed under a confocal microscope (Olympus FV1000 (Olympus)), using a medium containing calcein.
TPR-TAMRA (TAMRA labeled body) or Antp-TPR-TAMRA (TAMRA labeled body) was added to 1×10^6 U937 cells to a final concentration of 10 μM; the mixture was cultured for one hour; and then the behavior of the peptide incorporated into the cell or the influx of the medium into the cell after peptide penetration was observed under a confocal microscope (Olympus FV1000 (Olympus)), using a calcein-containing medium.

[20] = tested on: Caki-1; format: cell-based, human; conditions: Caki-1, 68 μM
Description: The TPR peptide or the TPR scramble peptide was mixed with a commercially available transfection reagent (Profect-P2 or, Lipofectamine LTX) and the mixture was left to incubate at room temperature for 20 minutes, to form liposome before the complex was added to cancer cells (Caki-1 (kidney cancer cells)); the survival rate of the cells was then measured by using WST-8 solution (Cell Count Reagent SF; Nacalai Tesque, Inc.) and the results were compared with those such as in the case of the TPR scramble peptide or the liposome alone.

[21] = tested on: T47D; format: cell-based, human; conditions: Breast cancer T47D; read-out: Anti-tumor activity, IC50 (μM) ± SD
Description: as §1

[22] = tested on: MRC-5; format: cell-based, human; conditions: Normal cell MRC5; read-out: Anti-tumor activity, IC50 (μM) ± SD
Description: as §1

[23] = Homo sapiens, HEK293, Normal cells HEK, averages of two independent experiments, read-out: Anti-tumor activity, IC50
[24] = U-937, Human AML cells U937, averages of two independent experiments, read-out: Anti-tumor activity, IC50
[25] = Human AML cells THP-1, averages of two independent experiments, read-out: Anti-tumor activity, IC50
[26] = Human AML cells HL-60, averages of two independent experiments, read-out: Anti-tumor activity, IC50
[27] = Human AML cells K562, averages of two independent experiments, read-out: Anti-tumor activity, IC50

Row | Compound | IC50 [1, 23] [µM] | IC50 [2] [µM] | IC50 [3] [µM] | Cell Survival Rate (%) ([4]; U937, 1.25 μM) | Cell Survival Rate (%) ([4]; U937, 2.5 μM) | Cell Survival Rate (%) ([4]; U937, 5 μM) | Cell Survival Rate (%) ([4]; U937, 10 μM) | IC50 [4, 24] [µM] | IC50 [5, 25] [µM] | Cell Survival Rate (%) ([5]; THP-1, 1.25 μM) | Cell Survival Rate (%) ([5]; THP-1, 2.5 μM) | Cell Survival Rate (%) ([5]; THP-1, 5 μM) | Cell Survival Rate (%) ([5]; THP-1, 10 μM) | Cell Survival Rate (%) ([6]; HL-60, 1.25 μM) | Cell Survival Rate (%) ([6]; HL-60, 2.5 μM) | Cell Survival Rate (%) ([6]; HL-60, 5 μM) | Cell Survival Rate (%) ([6]; HL-60, 10 μM) | IC50 [6, 26] [µM] | IC50 [7, 27] [µM] | Cell Survival Rate (%) ([7]; K562, 1.25 μM) | also measured
1 | C=CCNC1=C2C[C@@H](C)C[C@H](OC)[C@H](O)[C@@H](C)/C=C(\C)[C@H](OC(N)=O)[C@@H](OC)/C=C\C=C(/C)C(=O)NC(=CC1=O)C2=O [Peptide 17-AAG, 17-allylaminogeldanamycin] | 0.7 | 0.8 | 0.7 | 5.21 | 4.03 | 4.97 | 4.16 | 0.7 | 0.75 | 6.80 | 5.49 | 6.56 | 7.76 | 37.03 | 19.70 | 8.37 | 3.87 | 1.05 | 0.7 | 5.67 | Cell Survival Rate (%) ([7]; K562, 2.5 μM): 5.08%; Cell Survival Rate (%) ([7]; K562, 5 μM): 5.67%; Cell Survival Rate (%) ([7]; K562, 10 μM): 6.35%
2 | CC[C@H](C)[C@H](NC(=O)[C@H](CCCNC(=N)N)NC(=O)[C@H](C)NC(=O)[C@H](Cc1ccc(O)cc1)NC(=O)[C@H](C)NC(=O)[C@H](CCCCN)NC(=O)[C@H](CCCCN)NC(=O)[C@H](CCCCN)NC(=O)[C@H](Cc1c[nH]c2ccccc12)NC(=O)[C@H](CCCCN)NC(=O)[C@H](CCSC)NC(=O)[C@H](CCCNC(=N)N)NC(=O)[C@H](CCCNC(=N)N)NC(=O)[C@H](CC(N)=O)NC(=O)[C@H](CCC(N)=O)NC(=O)[C@H](Cc1ccccc1)NC(=O)[C@H](Cc1c[nH]c2ccccc12)NC(=O)[C@@H](NC(=O)[C@H](CCCCN)NC(=O)[C@@H](NC(=O)[C@H](CCC(N)=O)NC(=O)[C@@H](N)CCCNC(=N)N)[C@@H](C)CC)[C@@H](C)CC)C(=O)NCC(=O)N[C@@H](CC(N)=O)C(=O)N[C@@H](CO)C(=O)N[C@@H](Cc1ccc(O)cc1)C(=O)N[C@@H](Cc1ccccc1)C(=O)N[C@@H](CCCCN)C(=O)O [Antp-TPR] (H-RQIKIWFQNRRMKWKKKAYARIGNSYFK-OH; N-terminus and C-terminus assumed) | – | – | – | – | – | – | – | – | – | – | – | – | – | – | – | – | – | – | – | – | toxicity to the mice [8]: little toxicity to the mice; IC50 [9]: 20 to 60 µM; Cell Survival Rate (%) [4]: 23.24%; IC50 [4]: 25.2 µM; IC50 [5]: 24.7 µM; IC50 [6]: 46.4 µM; IC50 [7]: 54.2 µM; IC50 ([10]; 24 h): 39.8 ± 2.2 µM; IC50 ([11]; 24 h): 43.3 ± 3 µM; IC50 [12]: 52.9 ± 2.5 µM; IC50 [13]: 56.9 ± 12.3 µM; IC50 ([14]; 24 h): 49.1 ± 3 µM; IC50 [15]: 29.9 ± 3.4 µM; IC50 [16]: 20 to 60 µM; IC50 [17]: 32.8 ± 5.5 µM
3 | COC1=C2C[C@@H](C)C[C@H](OC)[C@H](O)[C@@H](C)/C=C(\C)[C@H](OC(N)=O)[C@@H](OC)/C=C\C=C(/C)C(=O)NC(=CC1=O)C2=O [Geldanamycin, geldanamycin] | 0.7 | 0.7 | 1 | 5.40 | 6.26 | 4.65 | 5.78 | 0.65 | 0.7 | 6.20 | 5.01 | 4.49 | 7.12 | 6.65 | 6.02 | 5.03 | 5.23 | 0.7 | 0.75 | 20.08 | Cell Survival Rate (%) ([7]; K562, 2.5 μM): 9.75%; Cell Survival Rate (%) ([7]; K562, 5 μM): 7.07%; Cell Survival Rate (%) ([7]; K562, 10 μM): 6.60%
4 | CC[C@H](C)[C@H](NC(=O)[C@H](CCCNC(=N)N)NC(=O)[C@H](C)NC(=O)[C@H](Cc1ccc(O)cc1)NC(=O)[C@H](C)NC(=O)[C@@H](N)CCCCN)C(=O)NCC(=O)N[C@@H](CC(N)=O)C(=O)N[C@@H](CO)C(=O)N[C@@H](Cc1ccc(O)cc1)C(=O)N[C@@H](Cc1ccccc1)C(=O)N[C@@H](CCCCN)C(=O)O [TPR] | – | – | – | – | – | – | – | – | – | – | – | – | – | – | – | – | – | – | – | – | inhibition of the interaction between Hsp90 and TPR2A ([18]; increasing peptide concentration): exerts an influence on the interaction between Hsp90 and TPR2A; Binding of Hsp90 (%) ([18]; peptide 1.411 μM): 88.19%; Binding of Hsp90 (%) ([18]; peptide 14.11 μM): 84.60%; Binding of Hsp90 (%) ([18]; peptide 141.1 μM): 72.26%; Binding of Hsp90 (%) ([18]; peptide 282.2 μM): 29.75%; Binding of Hsp90 (%) ([18]; peptide 705.5 μM): 0%; IC50 ([1]; Normal cell HEK, read-out: Anti-tumor activity, IC50 (μM) ± SD): > 352 µM; intracellular penetration [19]: did not penetrate into the cell; killing effect after introduction with transfection reagent [20]: observed when the TPR peptide was introduced; Cell Survival Rate (%) [4]: 92.79%; Anti-cancer activity (% relative to wild-type peptide) ([4]; U937, wild-type peptide = 100%): 9.39%; Decrease in cell survival rate (% relative to wild-type peptide) ([4]; U937, wild-type peptide = 100%): 25.04%; IC50 ([10]; Pancreatic cancer Bxpc3, read-out: Anti-tumor activity, IC50 (μM) ± SD): > 352 µM; IC50 ([11]; Kidney cancer Caki-1, read-out: Anti-tumor activity, IC50 (μM) ± SD): > 352 µM; IC50 ([14]; Prostate cancer LNcap, read-out: Anti-tumor activity, IC50 (μM) ± SD): > 352 µM; IC50 [21]: > 352 µM; IC50 [22]: > 352 µM
